The text below walks through data of patent US11773086B2, “Fungal modulators” (TRUSTEES OF BOSTON UNIVERSITY, priority 2020, dated 2023).

A value given as a limit tells only on which side of the number the result lay.

One assay has as its system C. auris. The assay can be described thus: microbe, parasite or virus in culture. It counts as cell-based, Candida auris. As to conditions: Candidozyma auris; Etest; read-out: fluconazole MIC in absence of azoffluxin. As to the method: FIGS. 2A-2E illustrate the above-described screening of the BU-CMD which identified azoffluxin as a fluconazole (FLC) potentiator against C. auris. […] Growth, as determined by optical density at 600 nm (OD600), is plotted in the presence of each CMD compound alone on the y-axis and in combination with FLC on the x-axis. Dotted lines represent 7-median absolute deviations from the median for each condition. […] FIG. 2B depicts the synergistic interactions. […] Growth was measured by the OD600 and normalized to the no drug control (see color bar). The fractional inhibitory concentration index (FICI) was calculated to determine the chemical interaction, with a value below 0.5 indicating synergy. […] FIG. 2D depicts FLC Etest strips in the presence and absence of 50 μM azoffluxin. A total of 1×10^6 C. auris cells were added to YPD agar plates, the E-test strip was added, and plates were incubated at 30° C. for 24 hours prior to imaging. FIG. 2. […] Dose-response assay where a two-fold dilution of azoffluxin was titered starting from 50 μM. Indicated titrations have a background concentration of FLC of 32 μg/mL, 4 μg/mL, 0.25 μg/mL, and 0.5 μg/mL for C. auris Ci6684 (Erg11Y132F), C. albicans (SN95), C. glabrata (BG2) or S. cerevisiae (BY4741), respectively. […] Dose response assays were incubated for 48 hours at 30° C. in RPMI. Growth in each well was plotted by the relative optical density to the respective no drug control (See color bar in FIG. 2B).
Compound potency was assessed alone by dose response assays or in combination with another compound by dose-response matrixes in 96-well plates, or 384-well, flat-bottom, microtiter plates (Corning) as previously described. Plates were incubated at 30° C. for the indicated time period. Growth was quantified by measuring OD600 and corrected for medium background. All strains were assessed in biological duplicate experiments with technical duplicates. […] For dose-response matrixes fractional inhibitory concentration index at 90% growth inhibition (FICI90) was calculated as previously described. […]

Assay [1] concerns FLC-resistant Candida auris. The assay can be described thus: Checkerboard (dose-response matrix) with fluconazole, FICI. The class given is cell-based. As to conditions: fractional inhibitory concentration index for enhancement of FLC activity in FLC-resistant Candida auris; <0.5 strong synergy, 2 = no synergy. As to the method: Generally, the synergy is measured by determining the fractional inhibitory concentration (FIC) value of the combination. […] FIC values for both agents in a particular square/well are calculated in this way followed by determination of the FIC index (sum of the FICs of each agent in the particular square/well).
Compound potency was assessed alone by dose response assays or in combination with another compound by dose-response matrixes in 96-well plates, or 384-well, flat-bottom, microtiter plates (Corning) as previously described. Plates were incubated at 30° C. for the indicated time period. Growth was quantified by measuring OD600 and corrected for medium background. All strains were assessed in biological duplicate experiments with technical duplicates. Growth was normalized to untreated controls and plotted as a heat map using Java TreeView 1.1.6r4. For dose-response matrixes fractional inhibitory concentration index at 90% growth inhibition (FICI90) was calculated as previously described. The fluconazole Etest susceptibility assay was performed as previously described. Briefly, 200 μL of 5×10^6 cells/mL were plated on YPD agar (1%) plates with either with 50 μM azoffluxin or containing DMSO.

In the case of `OC(Cn1cncn1)(Cn1cncn1)c1ccc(F)cc1F` [fluconazole, reference compound], the MIC with C. auris was more than 256 µg/mL. Take `CCC[C@@H](O)COc1cc2c(cc1C1(c3cc4c(cc3OC[C@H](O)CCC)OCO4)C(=O)Nc3c(F)cccc31)OCO2` [CMLD012440, 7-fluoro-3,3-bis(6-(((R)-2-hydroxypentyl)oxy)benzo[d][1,3]dioxol-5-yl)indolin-2-one]: the FICI in assay [1] came out at 0.058. `CC(C)(C)C[C@@H](O)COc1cc2c(cc1C1(c3cc4c(cc3OC[C@H](O)CC(C)(C)C)OCO4)C(=O)Nc3c(F)cccc31)OCO2` [CMLD013624, 7-fluoro-3,3-bis(6-(((R)-2-hydroxy-4,4-dimethylpentyl)oxy)benzo[d][1,3]dioxol-5-yl)indolin-2-one]: the FICI in assay [1] stood at 0.068. As for `CC(C)C[C@@H](O)COc1cc2c(cc1C1(c3cc4c(cc3OC[C@H](O)CC(C)C)OCCO4)C(=O)Nc3c(F)cccc31)OCCO2` [CMLD013654, 7-fluoro-3,3-bis(7-(((2R)-2-hydroxy-4-methylpentyl)oxy)-2,3-dihydro-1,4-benzodioxin-6-yl)-2,3-dihydro-1H-indol-2-one], the FICI in assay [1] was determined as 0.255.

For `C=CCC[C@@H](O)COc1cc2c(cc1C1(c3cc4c(cc3OC[C@H](O)CCC=C)OCO4)C(=O)Nc3ccc(F)cc31)OCO2` [CMLD012450, 5-fluoro-3,3-bis(6-(((R)-2-hydroxyhex-5-en-1-yl)oxy)benzo[d][1,3]dioxol-5-yl)indolin-2-one], the FICI in assay [1] came out at 0.266. On to `C=CCC[C@@H](O)COc1cc2c(cc1C1(c3cc4c(cc3OC[C@H](O)CCC=C)OCO4)C(=O)Nc3c(F)cccc31)OCO2` [CMLD012449, 7-fluoro-3,3-bis(6-(((R)-2-hydroxyhex-5-en-1-yl)oxy)benzo[d][1,3]dioxol-5-yl)indolin-2-one], for which the FICI in assay [1] stood at 0.113. For `CC(C)(C)C[C@@H](O)COc1cc2c(cc1C1(c3cc4c(cc3OC[C@H](O)CC(C)(C)C)OCO4)C(=O)Nc3cc(Br)ccc31)OCO2` [CMLD012446, 6-bromo-3,3-bis(6-(((R)-2-hydroxy-4,4-dimethylpentyl)oxy)benzo[d][1,3]dioxol-5-yl)indolin-2-one], in assay [1], the FICI turned out to be 0.068. For the compound `C=C(C)C[C@@H](O)COc1cc2c(cc1C1(c3cc4c(cc3OCC)OCO4)C(=O)Nc3cc(F)ccc31)OCO2` (stereo partly drawn) [RT-162S-015, 3-(6-ethoxybenzo[d][1,3]dioxol-5-yl)-6-fluoro-3-(6-(((R)-2-hydroxy-4-methylpent-4-en-1-yl)oxy)benzo[d][1,3]dioxol-5-yl)indolin-2-one], the FICI in assay [1] was found to be 0.133. Take `CCC[C@@H](O)COc1cc2c(cc1C1(c3cc4c(cc3OC[C@H](O)CCC)OCO4)C(=O)Nc3ccc(F)cc31)OCO2` [CMLD013619, 5-fluoro-3,3-bis(6-(((R)-2-hydroxypentyl)oxy)benzo[d][1,3]dioxol-5-yl)indolin-2-one]: in assay [1], the FICI turned out to be 0.255. On to `C=CC[C@@H](O)COc1cc2c(cc1C1(c3cc4c(cc3OC[C@H](O)CC=C)OCO4)C(=O)Nc3cc(F)ccc31)OCO2` [CMLD012400, 6-fluoro-3,3-bis(6-(((R)-2-hydroxypent-4-en-1-yl)oxy)benzo[d][1,3]dioxol-5-yl)indolin-2-one], for which the FICI in assay [1] turned out to be 0.130. The same measure, in the same setting: the figure for `C=CCC[C@@H](O)COc1cc2c(cc1C1(c3cc4c(cc3OC[C@H](O)CCC=C)OCO4)C(=O)Nc3cc(F)ccc31)OCO2` [CMLD012447, 6-fluoro-3,3-bis(6-(((R)-2-hydroxyhex-5-en-1-yl)oxy)benzo[d][1,3]dioxol-5-yl)indolin-2-one] is 0.130; for `CC(C)(C)C[C@@H](O)COc1cc2c(cc1C1(c3cc4c(cc3OC[C@H](O)CC(C)(C)C)OCO4)C(=O)Nc3ccc(Br)cc31)OCO2` [CMLD013652, 5-bromo-3,3-bis(6-(((2R)-2-hydroxy-4,4-dimethylpentyl)oxy)-2H-1,3-benzodioxol-5-yl)-2,3-dihydro-1H-indol-2-one] it is 0.175; for `CC(C)C[C@@H](O)COc1cc2c(cc1C1(c3cc4c(cc3OC[C@H](O)CC(C)C)OCO4)C(=O)Nc3ccc(Br)cc31)OCO2` [CMLD013650, 5-bromo-3,3-bis(6-(((2R)-2-hydroxy-4-methylpentyl)oxy)-2H-1,3-benzodioxol-5-yl)-2,3-dihydro-1H-indol-2-one] it is 0.300.

Regarding `CC(C)C[C@@H](O)COc1cc2c(cc1C1(c3cc4c(cc3OC[C@H](O)CC(C)C)OCO4)C(=O)Nc3cc(Br)ccc31)OCO2` [CMLD013651, 6-bromo-3,3-bis(6-(((2R)-2-hydroxy-4-methylpentyl)oxy)-2H-1,3-benzodioxol-5-yl)-2,3-dihydro-1H-indol-2-one], in assay [1], the FICI amounted to 0.130. On to `CC[C@@H](O)COc1cc2c(cc1C1(c3cc4c(cc3OC[C@H](O)CC)OCO4)C(=O)Nc3cc(F)ccc31)OCO2` [CMLD012394, 6-fluoro-3,3-bis(6-((R)-2-hydroxybutoxy)benzo[d][1,3]dioxol-5-yl)indolin-2-one], for which the FICI in assay [1] is 0.266. Consider `CC(C)(C)C[C@@H](O)COc1cc2c(cc1C1(c3cc4c(cc3OC[C@H](O)CC(C)(C)C)OCO4)C(=O)Nc3cc(F)ccc31)OCO2` [CMLD012443, 6-fluoro-3,3-bis(6-(((R)-2-hydroxy-4,4-dimethylpentyl)oxy)benzo[d][1,3]dioxol-5-yl)indolin-2-one], for which the FICI in assay [1] is on record as 0.068.

With `CC[C@@H](O)COc1cc2c(cc1C1(c3cc4c(cc3OC[C@H](O)CC)OCO4)C(=O)Nc3c(F)cccc31)OCO2` [CMLD012399, 7-fluoro-3,3-bis(6-((R)-2-hydroxybutoxy)benzo[d][1,3]dioxol-5-yl)indolin-2-one], the FICI in assay [1] worked out at 0.500.
